The term AUC denotes the area under the concentration-time curve, a measure of exposure.

The structures appear in SMILES notation. Numbering of substitutions follows the chain as printed. Like-named read-outs stand apart in the source and are kept apart here.

For data set [1], the target named is T1, SLCO1B1*15 (N130D and V174A) (Homo sapiens, UniProt Q9Y6L6, N130D/V174A).
T1 sequence (Q9Y6L6 1-691 N130D/V174A): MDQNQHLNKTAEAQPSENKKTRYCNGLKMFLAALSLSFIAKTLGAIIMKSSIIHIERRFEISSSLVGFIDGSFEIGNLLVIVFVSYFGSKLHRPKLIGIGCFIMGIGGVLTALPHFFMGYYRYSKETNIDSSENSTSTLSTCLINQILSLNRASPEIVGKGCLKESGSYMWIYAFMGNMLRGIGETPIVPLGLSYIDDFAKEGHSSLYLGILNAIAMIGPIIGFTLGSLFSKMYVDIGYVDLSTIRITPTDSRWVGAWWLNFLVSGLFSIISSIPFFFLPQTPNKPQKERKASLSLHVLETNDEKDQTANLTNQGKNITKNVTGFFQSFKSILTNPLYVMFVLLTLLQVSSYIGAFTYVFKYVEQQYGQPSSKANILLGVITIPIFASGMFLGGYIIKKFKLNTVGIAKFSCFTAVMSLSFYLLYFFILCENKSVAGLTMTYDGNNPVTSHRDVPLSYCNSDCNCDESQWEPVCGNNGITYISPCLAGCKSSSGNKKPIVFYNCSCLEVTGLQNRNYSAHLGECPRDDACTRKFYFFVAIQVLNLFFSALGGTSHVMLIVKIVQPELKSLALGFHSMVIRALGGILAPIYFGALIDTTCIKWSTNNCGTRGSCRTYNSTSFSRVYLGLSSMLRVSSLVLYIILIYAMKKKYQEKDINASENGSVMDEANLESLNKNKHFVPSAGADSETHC
The following applies: Xenopus oocytes, among the variants examined; cited from earlier work.

Data set [2] is described as follows: Irinotecan and metabolite AUC by ABCC2 3972C>T genotype in cancer patients.
Source text: Sixty-four adults (48 Caucasians, 10 African-Americans, 4 Hispanics, and 2 others) with refractory solid tumors took part in the pharmacogenetic study.
For data set [3], the target named is T2, OATP1B1 (Homo sapiens, UniProt Q9Y6L6).
T2 construct: expressed in transfected cells; host or cells: HEK293 cells (stably transfected); Xenopus oocytes
T2 sequence (Q9Y6L6 1-691): T1 sequence (Q9Y6L6 1-691 N130D/V174A) with D130N, A174V
The following applies: cited from earlier work; for transport activity by OATP1B1: OATP1B1*1a and three common variants.

A short description of data set [4]: CPT-11 pharmacokinetics by SLCO1B1*5 genotype in patients. To be noted: human, in vivo, intravenous.
Source text: Six SNPs in ABCC2 were genotyped [−1549G>A, −1019A>G, −24C>T, 1249G>A, intron 27 −34C>T, 3972C>T] and haplotypes were estimated. Two SNPs in SLCO1B1 [*1b (388A>G) and *5 (521T>C)] were also genotyped.
The conditions of data set [5]: cited from earlier work.
The conditions of data set [6]: after intra peritoneal administration of irinotecan; cited from earlier work.
For data set [7] the following is noted: cited from earlier work. This is another data set of the same source.

As to `C[C@]12CC[C@@H]3c4ccc(OS(=O)(=O)O)cc4CC[C@H]3[C@@H]1CCC2=O` [estrone-3-sulfate], the “transport activity of variant SLCO1B1*15” value in data set [1] is “decreased transport activities”.
Take `CCc1c2c(nc3ccc(OC(=O)N4CCC(N5CCCCC5)CC4)cc13)-c1cc3c(c(=O)n1C2)COC(=O)[C@]3(O)CC` [irinotecan]: the “AUC in ABCC2 3972 TT patients compared to CT and CC patients” value in data set [2] (350 mg/m^2 IV dose of irinotecan, 64 patients) was “higher AUC values”. Moreover, the “transport activity by OATP1B1” value in data set [3] was “not transported”. In addition, the area under the curve (AUC) in data set [4] (350 mg/m^2, patients with SLCO1B1*5 CT+CC genotype) was found to be 29500 ± 8800 ng·h/mL; in data set [4] (350 mg/m^2, patients with SLCO1B1*5 TT genotype), 22300 ± 5100 ng·h/mL. Besides, the “patients experiencing grade 3-4 neutropenia” value in data set [5] (both weekly and three-weekly regimens) was 30-40%. The “patients with grade 3-4 diarrhea” value in data set [5] (early single agent trials, dose limiting) is on record as “about one third”. Moreover, the “frequency of grade 3-4 diarrhea” value was 19% in data set [5] (three-weekly regimen) and 36% in data set [5] (weekly schedule). For the same compound, the figures for the mortality rate in data set [5] (three-weekly single agent regimen) and in data set [5] (weekly single agent regimen) were 1.6% and 5.3%, respectively.
In the case of `CCc1c2c(nc3ccc(OC(=O)N4CCC(NCCCCC(=O)O)CC4)cc13)-c1cc3c(c(=O)n1C2)COC(=O)[C@]3(O)CC` [APC], the “AUC ratio APC/irinotecan in TT patients compared to CT and CC patients” value in data set [2] (350 mg/m^2 IV irinotecan) is “Higher values of AUC ratios”.
As for `CCc1c2c(nc3ccc(O)cc13)-c1cc3c(c(=O)n1C2)COC(=O)[C@]3(O)CC` [SN-38, 7-ethyl-10-hydroxycamptothecin], the “AUC versus ABCC2 3972C>T genotype (TT compared to CT and CC)” value in data set [2] (350 mg/m^2 IV irinotecan, patients with 6/6 and 6/7 UGT1A1 genotype (n=54)) was “No significant correlation”. Further, in data set [3], the “transport activity by OATP1B1” value was “transport activity for SN-38 was observed” and the “effect on SLCO1B1-mediated uptake of [(3)H]estrone-3-sulfate” value is recorded as “significant inhibitory effect”. The “tissue accumulation of SN-38” value in data set [6] was “accumulate in the intestine”. Besides, in data set [1], the “transport activity of variant SLCO1B1*15” value is listed as “decreased transport activities”.
Regarding `CCc1c2c(nc3ccc(O[C@@H]4O[C@H](C(=O)O)[C@@H](O)[C@H](O)[C@H]4O)cc13)-c1cc3c(c(=O)n1C2)COC(=O)[C@]3(O)CC` [SN-38G, 10O-glucuronyl-SN-38], the “transport activity by OATP1B1” value in data set [3] is listed as “not transported”.
As for `CC[C@H](C)C(=O)O[C@H]1C[C@H](O)C=C2C=C[C@H](C)[C@H](CC[C@@H](O)C[C@@H](O)CC(=O)O)[C@H]21` [pravastatin], the “transport activity of variant SLCO1B1*15” value in data set [1] is “decreased transport activities”. For the same compound, the “mean pravastatin AUC0-12 higher compared to non-carriers” value is given as 93% in data set [7] (heterozygous carriers of *15B (388A>G and 521T>C)); 130% in data set [7] (heterozygous carriers of *17 (-11187G>A, 388A>G and 521T>C)). In addition, the “mean pravastatin AUC0-12 higher compared to reference genotype” value in data set [7] (subjects with 521TC genotype) is reported as 106%; in data set [7] (subjects with -11187GA genotype) it was 98%.

These data come from US20090017452A1, “METHODS AND COMPOSITIONS RELATING TO THE PHARMACOGENETICS OF DIFFERENT GENE VARIANTS” (UNIVERSITY OF CHICAGO, priority 2004, published 2009).
